Measurements as given in patent US4798841A, “Tetrahydropyridine oxime cholinergic agents and method of treatment” (Warner-Lambert Company, priority 1987, dated 1989).
pIC50: −log10 of the molar value. Like-named read-outs stand apart in the source and are kept apart here.

Tests used:
[1] = Davis et al. 1983; cited from earlier work
muscarinic binding site [2] = experiment: RCMD screening assay: inhibition of radiolabeled cis-methyldioxolane (muscarinic agonist) binding in rat cerebral cortex tissue; details: for % Inhib. RCMD: @ 10^-7 M; for pIC50: rat cerebral cortex, radiolabeled cis-methyldioxolane
Protocol: Similarly, in the RCMD screening assay, described more fully by T. W. Vickeroy et al., J. Pharmacol. and Exp. Ther., 229 (3): 747 (1984), rat cerebral cortex tissue was treated with radiolabeled cis-methyldioxolane, a known muscarinic binding site agonist. The percent inhibition at given concentrations or concentrations of test compounds required to inhibit 50% of the binding of this muscarinic agonist were then determined.

muscarinic binding site [3] = experiment: RQNB screening assay: inhibition of radiolabeled quinuclidinyl benzilate (muscarinic antagonist) binding in rat cerebral cortex tissue; details: for % Inhib. RQNB: @ 10^-6 M; for pIC50: rat cerebral cortex, radiolabeled quinuclidinyl benzilate
laboratory rats = experiment: Scopolamine induced swimming test (SIS); type: in vivo, rat; details: for minimal effective dose: rat, read-out: Minimal Effective Dose for Reversal of Scopolamine-Induced Swimming Hyperactivity; for Reversal of scopolamine-induced swimming hyperactivity: result in words
Protocol: In the scopolamine induced swimming test (SIS), the ability of representative compounds of the present invention to reverse the hyperactive swimming behavior of laboratory rats given scopolamine was assessed. In this test, untreated rats will generally swim between 20 to 30 meters during a five minute test period. […] The effect of scopolamine is centrally mediated; the ability of a test compound to reverse the hyperactive swimming behavior induced by scopolamine is thus a measure of the central cholinergic activity of the compound.

male Swiss-Webster mice = experiment: Antiwrithing (AW) test, acetic acid induced writhing; type: in vivo; details: ip; intraperitoneal dosing; mouse; acetic acid 0.6%; read-out: ED50 (dose necessary to suppress writhing by 50% relative to vehicle controls)
Protocol: The antiwrithing (AW) test provides preliminary assessment of compounds with potential analgesic activity. The test is performed with male Swiss-Webster mice. Compounds are administered in aqueous 0.2% methylcellulose or other appropriate vehicles in volumes of 10 ml/kg. Dosages represent active moiety.
Acetic acid (0.6%, 10 ml/kg) is injected intraperitoneally after administration of the compound. writhing movements are counted for five minutes starting seven minutes after the acetic acid injection. Data are expressed as ED50 values, where the ED50 is the dose necessary to suppress writhing by 50% relative to vehicle controls. ED50 values are calculated by nonlinear regression analysis.

[4] = system: patients clinically diagnosed as having presenile primary degenerative dementia; details: double blind study; Christie et al. 1981; cited from earlier work
[5] = system: aged humans and non-human primates with decreased cognition; details: result in words; cited from earlier work

SMILES	% Inhib. RCMD (muscarinic binding site [2])	% Inhib. RQNB (muscarinic binding site [3])	minimal effective dose (laboratory rats; sc, Subcutaneous)	pIC50 (muscarinic binding site [2])	pIC50 (muscarinic binding site [3])	also measured
Nc1ccncc1N [3,4-diaminopyridine]	–	–	–	–	–	Age-related cognitive deficits [1]: ameliorate age-related cognitive deficits
CCN1CCC=C(C(C)=NO)C1 [Ethyl 3-Methyl, 1-(1-Ethyl-1,2,5,6-tetrahydro-3-pyridinyl)ethanone oxime]	21%	23%	–	–	–	–
CC(=NO)C1=CCCNC1 [Hydrogen 3-Methyl, 1-(1,2,5,6-Tetrahydro-3-pyridinyl)ethanone oxime]	85%	24%	3.2 mg/kg	–	–	–
CC(C)/C(=N\O)C1=CCCN(C)C1 [Methyl 3-(1-Methylethyl) (anti), 2-Methyl-1-(1,2,5,6-tetrahydro-1-methyl-3-pyridinyl)-1-propanone oxime]	10%	10%	–	–	–	–
CC(C)/C(=N/O)C1=CCCN(C)C1 [Methyl 3-(1-Methylethyl) (syn), 2-Methyl-1-(1,2,5,6-tetrahydro-1-methyl-3-pyridinyl)-1-propanone oxime]	43%	35%	–	–	–	–
C#CCCC(=NO)C1=CCCN(C)C1 [Methyl 3-(CH2 CH2 C CH)]	–	–	–	8.15	6.00	–
COCCCC(=NO)C1=CCCN(C)C1 [Methyl 3-(CH2 CH2 CH2 OCH3), 4-Methoxy-1-(1,2,5,6-tetrahydro-1-methyl-3-pyridinyl)-1-butanone Oxime]	–	–	32 mg/kg	7.52	5.60	–
C=CCCC(=NO)C1=CCCN(C)C1 [Methyl 3-(CH2 CH2 CHCH2), 1-(1,2,5,6-Tetrahydro-1-methyl-3-pyridinyl)-4-penten-1-one oxime]	–	–	32 mg/kg	7.40	6.22	–
CN1CCC=C(C(CCc2ccccc2)=NO)C1 [Methyl 3-(CH2 CH2Ph), 3-Phenyl-1-(1,2,5,6-tetrahydro-1-methyl-3-pyridinyl)-1-propanone oxime]	–	–	32 mg/kg	–	–	–
CN1CCC=C(C(COCc2ccccc2)=NO)C1 [Methyl 3-(CH2 OCH2 Ph)]	30%	38%	–	–	–	–
CCC(=NO)C1=CCCN(C)C1 [Methyl 3-Ethyl, 1-(1,2,5,6-Tetrahydro-1-methyl-3-pyridinyl)-1-propanone oxime]	–	–	32 mg/kg	7.30	5.70	–
CC(=NO)C1=CCCN(C)C1 [Methyl 3-Methyl, 1-(1,2,5,6-Tetrahydro-1-methyl-3-pyridinyl)-ethanone oxime]	–	–	3.2 mg/kg	7.72	5.33	ED50 (male Swiss-Webster mice): 1.1 mg/kg
CN1CCC=C(C(=NO)c2ccccc2)C1 [Methyl 3-Phenyl, Phenyl(1,2,5,6-tetrahydro-1-methyl-3-pyridinyl)methanone oxime]	39%	51%	–	–	–	–
CN1CCC=C(C(CCc2ccccc2)=NO)C1 [Methyl 3-Phenylmethyl]	66%	86%	–	–	–	–
CCCCC(=NO)C1=CCCN(C)C1 [Methyl 3-n-Butyl, 1-(1,2,5,6-Tetrahydro-1-methyl-3-pyridinyl)-1-pentanone oxime]	–	–	32 mg/kg	7.70	6.52	–
CC(=NO)C1=CCN(C)CC1 [Methyl 4-Methyl]	–	–	3.2 mg/kg	6.31	5.00	–
CN1CCC=C(C=NO)C1 [Methyl Hydrogen, 1,2,5,6-Tetrahydro-1-methyl-3-pyridinecarboxaldehyde oxime]	22%	8%	32 mg/kg	–	–	–
COC(=O)C1=CCCN(C)C1 [arecoline, methyl ester of 1,2,5,6-tetra-hydro-1-methyl-3-pyridinecarboxylic acid, reference compound]	–	–	–	–	–	Reversal of scopolamine-induced swimming hyperactivity (laboratory rats): can be reversed; Test of picture recognition [4]: Significant improvement
CCCN1CCC=C(C(CCc2ccccc2)=NO)C1 [n-Propyl 3-(CH2 CH2Ph), 3-Phenyl-1-(1,2,5,6-tetrahydro-1-propyl-3-pyridinyl)-1-propanone oxime]	–	–	–	–	–	minimal effective dose (laboratory rats; Oral): 3.2 mg/kg
CCCN1CCC=C(C(CCc2ccccc2)=NO)C1 [n-Propyl 3-Phenylmethyl]	3%	63%	–	–	–	–
CNC(=O)Oc1ccc2c(c1)[C@]1(C)CCN(C)[C@@H]1N2C [physostigmine, reference compound]	–	–	–	–	–	Reversal of scopolamine-induced swimming hyperactivity (laboratory rats): can be reversed; Memory in aged humans and non-human primates with decreased cognition [5]: improved memory
CN1[C@@H]2C[C@@H](OC(=O)[C@H](CO)c3ccccc3)C[C@H]1[C@@H]1O[C@@H]12 [scopolamine, reference compound]	–	–	–	–	–	Increase of swimming distance above base-line (laboratory rats; scopolamine 0.1 mg/kg, five minute test period): 75-125%
